The results in this text go back to patent US10858364B2, “Imidazopyrazine inhibitors of Bruton's tyrosine kinase” (Acerta Pharma B.V., priority 2016, dated 2020).

A short description of data set [1]: Clinical pharmacokinetics of acalabrutinib and its major metabolite. Type of data set: in vivo, human. An excerpt:
The compound of Formula (I) was identified as the major metabolite in plasma with a geometric mean exposure (AUC) approximately 2- to 3-fold higher than the exposure of acalabrutinib.
Acalabrutinib and the major metabolite form a covalent bond with a cysteine residue in the BTK active site, leading to inhibition of BTK enzymatic activity. Acalabrutinib binding with the cysteine residue occurs rapidly and irreversibly and provides high target occupancy at steady state.

The test system of another data set is CYP3A4/5. As to the kind of experiment: CYP inhibition, CYP3A4/5. The data set is classed as in vitro ADME.
The next data set has as its target CYP2C8 (Homo sapiens (Human), UniProt P10632). As to the kind of experiment: CYP inhibition, CYP2C8. Type of data set: in vitro ADME.
The next data set concerns the target CYP2C9 (Homo sapiens (Human), UniProt P11712). The data set is described as follows: CYP inhibition, CYP2C9. The data set is classed as in vitro ADME.
Data set [2] addresses CYP2B6 (Homo sapiens (Human), UniProt P20813). The data set is described as follows: CYP inhibition, CYP2B6. The data set is classed as in vitro ADME.
In a further data set the target is CYP2C19 (Homo sapiens (Human), UniProt P33261). The data set is described as follows: CYP inhibition, CYP2C19. The data set is classed as in vitro ADME.
Chain of CYP2C19 (P33261 whole entry): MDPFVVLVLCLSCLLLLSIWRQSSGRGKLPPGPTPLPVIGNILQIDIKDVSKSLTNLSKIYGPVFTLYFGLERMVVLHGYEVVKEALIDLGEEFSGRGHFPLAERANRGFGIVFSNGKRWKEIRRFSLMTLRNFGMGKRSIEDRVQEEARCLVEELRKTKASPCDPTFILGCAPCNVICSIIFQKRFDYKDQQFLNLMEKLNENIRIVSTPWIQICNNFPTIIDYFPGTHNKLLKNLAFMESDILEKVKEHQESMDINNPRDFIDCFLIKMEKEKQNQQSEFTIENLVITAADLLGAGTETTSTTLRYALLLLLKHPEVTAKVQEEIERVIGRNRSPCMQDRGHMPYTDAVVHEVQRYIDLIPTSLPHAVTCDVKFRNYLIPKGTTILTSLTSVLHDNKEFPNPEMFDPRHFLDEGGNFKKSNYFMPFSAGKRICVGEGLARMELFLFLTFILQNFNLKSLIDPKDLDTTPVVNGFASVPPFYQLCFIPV
The target of a further data set is CYP2D6 (Homo sapiens (Human), UniProt P10635). The data set is described as follows: CYP inhibition, CYP2D6. Type of data set: in vitro ADME.
Chain of CYP2D6 (P10635 whole entry): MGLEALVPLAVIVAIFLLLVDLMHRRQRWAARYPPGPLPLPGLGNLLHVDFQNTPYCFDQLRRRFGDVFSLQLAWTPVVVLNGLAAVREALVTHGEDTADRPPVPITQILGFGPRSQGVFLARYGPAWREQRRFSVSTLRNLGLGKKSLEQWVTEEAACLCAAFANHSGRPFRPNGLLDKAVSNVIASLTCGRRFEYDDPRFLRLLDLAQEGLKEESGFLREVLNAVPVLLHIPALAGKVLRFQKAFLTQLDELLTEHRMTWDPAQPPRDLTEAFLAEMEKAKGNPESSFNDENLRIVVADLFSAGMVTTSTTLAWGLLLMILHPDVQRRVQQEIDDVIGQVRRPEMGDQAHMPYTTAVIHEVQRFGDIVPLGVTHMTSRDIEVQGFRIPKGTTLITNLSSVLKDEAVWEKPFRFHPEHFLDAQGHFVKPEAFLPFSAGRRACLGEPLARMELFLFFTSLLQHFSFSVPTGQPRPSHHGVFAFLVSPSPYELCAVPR
Data set [3] deals with CYP1A2. As to the kind of experiment: CYP induction, CYP1A2. The data set is classed as in vitro ADME.
The test system of data set [4] is CYP2B6. The data set is described as follows: CYP induction, CYP2B6. The data set is classed as in vitro ADME.
In another data set the test system is CYP3A4. As to the kind of experiment: CYP induction, CYP3A4. The data set is classed as in vitro ADME.
The test system of a further data set is CYP3A enzymes. The data set is described as follows: In vitro metabolism studies. Type of data set: in vitro ADME.
The target of data set [5] is CYP1A2 (Homo sapiens (Human), UniProt P05177).
Chain of CYP1A2 (Homo sapiens (Human), UniProt P05177) (P05177 whole entry): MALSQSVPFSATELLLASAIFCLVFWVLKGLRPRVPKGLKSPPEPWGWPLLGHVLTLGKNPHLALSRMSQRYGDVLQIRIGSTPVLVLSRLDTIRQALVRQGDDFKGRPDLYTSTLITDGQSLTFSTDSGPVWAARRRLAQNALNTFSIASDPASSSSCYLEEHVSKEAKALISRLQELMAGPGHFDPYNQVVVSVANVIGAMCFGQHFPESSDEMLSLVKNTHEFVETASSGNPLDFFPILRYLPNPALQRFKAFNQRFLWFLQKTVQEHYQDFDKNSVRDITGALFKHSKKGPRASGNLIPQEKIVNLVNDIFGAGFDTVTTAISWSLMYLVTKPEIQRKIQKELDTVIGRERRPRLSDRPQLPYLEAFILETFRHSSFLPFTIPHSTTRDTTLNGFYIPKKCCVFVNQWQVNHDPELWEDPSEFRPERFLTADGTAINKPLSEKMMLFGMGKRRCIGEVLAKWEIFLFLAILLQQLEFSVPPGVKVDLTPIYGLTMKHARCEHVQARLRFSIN

As usually defined, the half-life is how long it takes for the measured level to halve.

Chain of CYP2C8 (P10632 whole entry): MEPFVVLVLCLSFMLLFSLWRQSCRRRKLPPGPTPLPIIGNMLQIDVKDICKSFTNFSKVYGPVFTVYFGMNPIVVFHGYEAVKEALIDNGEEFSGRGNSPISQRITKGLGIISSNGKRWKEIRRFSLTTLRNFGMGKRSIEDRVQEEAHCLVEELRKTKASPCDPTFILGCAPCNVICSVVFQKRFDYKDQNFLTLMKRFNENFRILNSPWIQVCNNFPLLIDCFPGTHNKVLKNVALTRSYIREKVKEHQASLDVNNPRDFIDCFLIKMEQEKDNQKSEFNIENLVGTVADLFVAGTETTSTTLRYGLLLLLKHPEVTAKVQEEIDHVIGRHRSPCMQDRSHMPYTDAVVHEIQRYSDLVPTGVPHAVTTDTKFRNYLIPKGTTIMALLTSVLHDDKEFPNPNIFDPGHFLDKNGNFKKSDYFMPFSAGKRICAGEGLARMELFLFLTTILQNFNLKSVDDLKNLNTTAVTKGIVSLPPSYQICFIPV
Chain of CYP2B6 (Homo sapiens (Human), UniProt P20813) (P20813 whole entry): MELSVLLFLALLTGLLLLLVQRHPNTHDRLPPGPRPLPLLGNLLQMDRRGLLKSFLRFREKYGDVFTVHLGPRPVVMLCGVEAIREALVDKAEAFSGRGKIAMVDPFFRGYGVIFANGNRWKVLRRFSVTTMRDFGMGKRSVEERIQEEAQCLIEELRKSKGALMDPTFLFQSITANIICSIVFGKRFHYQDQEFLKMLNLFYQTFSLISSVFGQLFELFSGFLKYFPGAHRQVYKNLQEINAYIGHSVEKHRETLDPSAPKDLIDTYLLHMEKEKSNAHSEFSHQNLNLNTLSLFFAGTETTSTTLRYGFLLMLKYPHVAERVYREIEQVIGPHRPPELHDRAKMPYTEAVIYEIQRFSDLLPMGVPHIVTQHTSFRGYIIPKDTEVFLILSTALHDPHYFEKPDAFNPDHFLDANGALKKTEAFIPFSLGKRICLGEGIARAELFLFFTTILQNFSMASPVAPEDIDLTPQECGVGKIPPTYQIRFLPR
Chain of CYP2C9 (P11712 whole entry): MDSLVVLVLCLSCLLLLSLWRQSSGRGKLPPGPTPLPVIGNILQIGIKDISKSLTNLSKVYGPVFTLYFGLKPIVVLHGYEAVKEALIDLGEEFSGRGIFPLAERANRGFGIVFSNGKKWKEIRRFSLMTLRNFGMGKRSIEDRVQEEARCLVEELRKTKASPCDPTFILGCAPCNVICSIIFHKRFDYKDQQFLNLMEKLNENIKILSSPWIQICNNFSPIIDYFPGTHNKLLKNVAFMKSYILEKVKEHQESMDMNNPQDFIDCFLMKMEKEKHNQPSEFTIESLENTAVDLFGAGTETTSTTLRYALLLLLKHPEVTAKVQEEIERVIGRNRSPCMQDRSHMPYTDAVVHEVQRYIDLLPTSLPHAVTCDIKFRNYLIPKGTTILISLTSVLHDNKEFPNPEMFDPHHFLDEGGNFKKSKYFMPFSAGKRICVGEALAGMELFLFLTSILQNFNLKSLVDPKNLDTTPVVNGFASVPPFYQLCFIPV

For `CC#CC(=O)N1CCC[C@H]1c1nc(-c2ccc(C(=O)Nc3ccccn3)cc2)c2c(N)nccn12` [acalabrutinib, reference compound], the half-life in data set [1] (human, in vivo, single oral dose of 100 mg acalabrutinib, read-out: median terminal elimination half-life (t½) (converted)) was 54 min. Besides, in data set [1] (population pharmacokinetics analysis), the “mean apparent oral clearance (CL/F)” value stood at 159 L/h. For the same molecule, in the data set on CYP3A4/5, the CYP3A4/5 inhibition entry is recorded as “weak inhibitor”. Also, the CYP2C8 inhibition result on CYP2C8 is on record as “weak inhibitor”. Also, the CYP2C9 inhibition entry at CYP2C9 was “weak inhibitor”. Also, the CYP2B6 inhibition entry at CYP2B6 [2] is on record as “does not inhibit”. For the same molecule, the CYP2C19 inhibition entry at CYP2C19 is on record as “does not inhibit”. Moreover, the CYP2D6 inhibition result on CYP2D6 was “does not inhibit”. Moreover, the CYP1A2 induction entry in the data set on CYP1A2 [3] is listed as “weak inducer”. Besides, the CYP2B6 induction entry with CYP2B6 [4] is given as “weak inducer”. In addition, in the data set with CYP3A4, the CYP3A4 induction entry is on record as “weak inducer”. Besides, in the data set with CYP3A enzymes, the metabolic route result is given as “predominantly metabolized by CYP3A enzymes”. Also, the CYP1A2 inhibition entry on CYP1A2 [5] was “does not inhibit”.
